# US20170071901A1, “METHODS AND FORMULATIONS FOR INCREASING CHEMICAL STABILITY AND BIOLOGICAL ACTIVITY OF PHENOLIC COMPOUNDS” (priority 2015, published 2017)
# “Also recorded” adds a separate entry of the source. Where two headings read alike, the source gives them in different places.
# Assays:
# [1] = test system: MC38 colon cancer cells; experiment: MC38 colon cancer cell proliferation (MTT assay); assay type: cell-based; settings: for effect of antioxidant alone on MC38 cell proliferation: 3.9-62.5 μM antioxidant alone; for effect of antioxidant alone on MC38 cell proliferation / effect of antioxidant on anti-proliferative effect of curcumin: 24 h; for effect of antioxidant on anti-proliferative effect of curcumin: MC38, curcumin 20 μM with antioxidant (3.9 μM each, FIG. 4D); for inhibition at 10 µg/mL: Mus musculus
# Description: MC38 colon cancer cells (a gift from Prof. Ajit Varki at the University of California, San Diego) were plated into 96-well plates (6,000 cells per well) in 100 μL Dulbecco's Modified Eagle Medium (DMEM, purchased from Lonza, Allendale, N.J.) fortified with 10% Fetal Bovine Serum ([…], purchased from Coming Inc., Corning, N.Y.) and allowed to attach overnight. […] Nitteranon, V.; Chan, L. Y.; Parkin, K. L. Glutathione conjugation attenuates biological activities of 6-dehydroshogaol from ginger. Food Chem. 140:1-8; 2013, which is incorporated by reference herein in its entirety and for all purposes.
# [2] = for stability of the compound in phosphate buffer (HPLC): 25 μM of each compound, 0.1 M phosphate buffer pH 7.4
# [3] = aqueous buffer, background statement; cited from earlier work
# [4] = Curcumin stability in serum-free basal DMEM medium (HPLC); assay type: physicochemical
# Description: (A1-A6) Representative microscope images of the treated cells. […] The results are mean ±SD, The samples designated with different letters are statistically different (P <0.05).
# [5] = test system: iNOS; experiment: LPS-induced expression of iNOS in RAW 264.7 macrophage cells; assay type: cell-based
# [6] = test system: colorectal cancer; settings: human, cited from earlier work
# [7] = Plasma concentration of curcumin in mice after i.p. injection (HPLC); assay type: in vivo; settings: male, Swiss Webster, mouse, intraperitoneal, 20 mg/kg
# Description: After 1 h, the mice were sacrificed to harvest the blood. The harvested blood was centrifuged at 1,200 g for 10 min at 4° C. to prepare the plasma fraction; then 200 μL plasma was immediately extracted with 400 μL ethyl acetate, the ethyl acetate extract was dried and reconstituted in methanol for HPLC analysis.
# The mobile phase consisted methanol with 0.1% acetic acid (mobile phase B) and water with 0.1% acetic acid (mobile phase A).
# [8] = test system: LPS-induced NO production; experiment: LPS-induced NO production in RAW 264.7 macrophage cells; assay type: cell-based
# [9] = test system: advanced pancreatic cancer; settings: human, daily intake of 8 grams; cited from earlier work
# [10] = test system: NF-kB signaling; experiment: LPS-induced NF-kB signaling in RAW 264.7 macrophage cells; assay type: cell-based
# [11] = physchem; settings: 0.1 M phosphate buffer, pH 7.4
# [12] = test system: COX-2; settings: RAW 264.7 macrophage cells
# [13] = test system: Cadmium-induced hepatotoxicity; settings: rats; 200-400 mg/kg curcumin alone, 400 mg/kg ascorbate alone, or their combination; cited from earlier work
# [14] = test system: MC38 colon cancer cells; experiment: Cell cycle progression and apoptosis in MC38 colon cancer cells; assay type: cell-based; settings: MC38, 24 hour treatment
# [15] = 25 μM curcumin, 0.1 M phosphate buffer, with or without 150 μM antioxidant, HPLC, % of time 0
molecule,measurement,setting,value
Cc1c(C)c2c(c(C)c1O)CCC(C)(C(=O)O)O2 (stereo not drawn) [Trolox],effect of antioxidant alone on MC38 cell proliferation,[1],no effect
same,effect of antioxidant on anti-proliferative effect of curcumin,[1],significantly increased anti-proliferative effects of curcumin
O=C(O)c1cc(O)c(O)c(O)c1 [gallic acid],"effect of co-added antioxidant on curcumin stability (colorimetric assay, absorbance 420 nm)","[2]; 25 μM curcumin, phosphate buffer, dose of antioxidants 15 and 1.50 μM as printed",dramatically increased curcumin stability
same,effect of co-added antioxidant on long-term stability of curcumin,"[2]; 24-h and 48-h incubation, antioxidant 150 μM, 25 μM curcumin, phosphate buffer, HPLC",significantly increased long-term stability of curcumin
same,effect of antioxidant on anti-proliferative effect of curcumin,[1],significantly increased anti-proliferative effects of curcumin
O=C(/C=C/c1ccc(O)c(O)c1)O[C@H](Cc1ccc(O)c(O)c1)C(=O)O [rosmarinic acid],effect of antioxidant on anti-proliferative effect of curcumin,[1],significantly increased anti-proliferative effects of curcumin
"COc1ccc(C=CC(=O)CC(=O)C=Cc2ccc(OC)c(OC)c2)cc1OC [dimethoxy curcumin, 1,7-bis(3,4-dimethoxyphenyl)-1,6-heptadiene-3,5-dione]",stability of the compound in phosphate buffer (HPLC),[2],very stable
COc1cc(/C=C/C(=O)CC(=O)/C=C/c2ccc(O)c(OC)c2)ccc1O [curcumin],degradation of curcumin in the buffer (HPLC),"[2]; 25 μM curcumin, 0.1 M phosphate buffer pH 7.4, after ~12-min incubation",80-90%
same,curcumin remaining in the phosphate buffer after 24-h incubation,[2]; [15],~5.9%
same,curcumin remaining in the phosphate buffer after 48-h incubation,[2]; [15],~4.2%
same,stability of the compound in phosphate buffer (HPLC),[2],rapidly degraded
same,half-life of curcumin at physiological pH,[3],several minutes
same,stability of curcumin in basal medium,[4],rapidly degraded
same,inhibition of LPS-induced expression of iNOS,[5],dose-dependently inhibited
same,effect in Phase IIa trial of colorectal cancer at 2 grams/day,[6]; 2 grams/day,no effect
same,effect in Phase IIa trial of colorectal cancer at 4 grams/day,[6]; 4 grams/day,only inhibited aberrant crypt foci; also recorded: only reduced colorectal cancer risks
same,reduction of aberrant crypt foci,[6]; daily intake of 4 grams of curcumin for a month,~40%
same,concentration at 1 h,[7],14.8 ± 16 nM
same,inhibition at 10 µg/mL,"[1]; MC-38, 24 h, read-out: inhibition of MC38 proliferation after 24 h treatment",~60%
same,inhibition at 10 µg/mL,"[1]; MC-38, read-out: inhibition of MC38 proliferation after 48-72 h treatment",> 95%
same,inhibition of LPS-induced NO production,[8],inhibited LPS-induced NO production in a dose-dependent manner
same,anti-cancer efficacy in advanced pancreatic cancer,[9],demonstrates anti-cancer efficacy in some patients
same,"inhibition of LPS-induced NF-kB signaling (IKK phosphorylation, IκBα degradation, nuclear translocation of p65)",[10],inhibited LPS-induced activation of NF-kB signaling
same,half-life at 25 μM,[11],< 10 min
same,inhibition of LPS-induced expression of inflammatory protein COX-2,[12],inhibited
same,effect on Cadmium-induced hepatotoxicity,[13],no effect
same,G2 cell cycle arrest and apoptosis,[14],significantly induced G2 cell cycle arrest and apoptosis
"O=C([O-])CN(CCN(CC(=O)O)CC(=O)O)CC(=O)[O-].[Na+].[Na+] [EDTA, disodiumethylenediaminetetra acetic acid]",protective effect of EDTA on curcumin stability (HPLC),"[2]; EDTA even at a dose as high as 200 μM, phosphate buffer",little protective effect
O=C1O[C@H]([C@@H](O)CO)C(O)=C1O [ascorbate],effect of antioxidant alone on MC38 cell proliferation,[1],no effect
"CC(C)(C)c1cc(O)ccc1O [TBHQ, tert-butylhydroquinone]",effect of antioxidant on anti-proliferative effect of curcumin,[1],significantly increased anti-proliferative effects of curcumin
bicyclopentadione [BCP],inhibition of LPS-induced expression of iNOS,[5],no effect
same,inhibition of cancer cell proliferation in the tested dose range,"[1]; MC38, 10-40 μg/mL, 24-72 h treatment",completely inactive
same,inhibition of LPS-induced NO production,[8],no effect
same,"inhibition of LPS-induced NF-kB signaling (IKK phosphorylation, IκBα degradation, nuclear translocation of p65)",[10],neither TDP nor BCP had such inhibitory effect
same,G2 cell cycle arrest and apoptosis,[14],neither TDP nor BCP had such effects
O=C(O)/C=C/c1ccc(O)c(O)c1 [caffeic acid],effect of antioxidant on anti-proliferative effect of curcumin,[1],significantly increased anti-proliferative effects of curcumin
